According to the supplement of paper PMC10307832:

Compound: C[C@H]([C@@H](C(=O)N)NC(=O)[C@@H]1CSSC[C@@H](C(=O)N[C@H](C(=O)N[C@@H](C(=O)N[C@H](C(=O)N1)CCCCN)CC2=CNC3=CC=CC=C32)CC4=CC=C(C=C4)O)NC(=O)[C@@H](CC5=CC=CC=C5)N)O [CAP-232]
Test: relative viability (nuclei count vs DMSO), 5 days (fraction); higher = more cells survive
Summary of the method: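 Lung cancer cell lines were seeded into 1536-well plates, kept overnight at 37 °C and pinned with five library-drug doses (not always all listed) spaced by √10. After 5 days, nuclei were Hoechst-stained, imaged at 4× and counted with MetaXpress. Viability is treated-well nuclei over vehicle-well nuclei, taken as a median across plates. Plates needed control CV below 25% and at least one doubling.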

Cell Line | relative viability (0.4 µM) | relative viability (1.265 µM) | relative viability (4 µM) | relative viability (12.65 µM)
201T | 1.07 | 0.952 | 0.996 | 1.02
A549 | 0.999 | 0.895 | 1.14 | 0.597
A-427 | 1.01 | 0.953 | 0.931 | 0.86
ABC-1 | 0.968 | 0.789 | 0.957 | 0.603
BEN | 1.03 | 1.05 | 0.989 | 0.922
CAL-12T | 0.917 | 0.992 | 0.995 | 0.97
COR-L23 | 1.15 | 1.05 | 1.09 | 0.745
COR-L 105 | 1.05 | 0.816 | 0.992 | 0.573
ChaGo-K-1 | 1.1 | 0.99 | 1.05 | 1.04
EKVX | 1.07 | 0.968 | 1.04 | 0.885
EMC-BAC-2 | 1.19 | 0.941 | 0.995 | 0.866
EPLC-272H | 0.998 | 0.909 | 1.05 | 0.915
H3255 | 0.976 | 0.946 | 1.01 | 0.769
HARA | 1.12 | 0.984 | 1.03 | 0.902
HCC-15 | 1.15 | 1.01 | 1.14 | 0.874
HCC-44 | 1.11 | 0.988 | 0.963 | 0.978
HCC-78 | 1.16 | 0.947 | 1.14 | 0.992
HCC-366 | 0.988 | 0.964 | 1.04 | 1.09
HCC-827 | 1.07 | 1.05 | 1.06 | 0.997
HOP-62 | 0.998 | 0.957 | 1.1 | 0.992
IA-LM | 1.02 | 0.911 | 1.07 | 0.508
LC-2-ad | 1.17 | 0.95 | 1.07 | 1.03
LCLC-97TM1 | 1.02 | 0.943 | 0.986 | 0.965
LCLC-103H | 1.13 | 0.984 | 1.08 | 0.967
LK-2 | 1.08 | 0.957 | 1.1 | 0.976
LOU-NH91 | 1.01 | 0.908 | 0.934 | 0.686

Cell Line | relative viability (0.4 µM) | relative viability (1.265 µM) | relative viability (4 µM) | relative viability (12.65 µM)
LU99A | 0.969 | 0.919 | 0.986 | 0.984
LXF-289 | 1.04 | 1.02 | 1.06 | 0.993
NCI-H23 | 1.09 | 0.853 | 0.949 | 0.931
NCI-H322M | 1.13 | 0.86 | 0.896 | 1.16
NCI-H358 | 0.979 | 0.918 | 0.927 | 0.81
NCI-H441 | 1.07 | 0.969 | 1.07 | 0.921
NCI-H460 | 1.04 | 1.01 | 1.09 | 0.777
NCI-H520 | 1.09 | 1.01 | 1.07 | 0.928
NCI-H522 | 0.967 | 0.982 | 1.01 | 0.916
NCI-H596 | 1.12 | 0.934 | 0.912 | 0.976
NCI-H647 | 1.11 | 0.808 | 1.17 | 0.768
NCI-H650 | 1.03 | 0.979 | 1.02 | 0.91
NCI-H661 | 0.948 | 1.04 | 1.04 | 0.984
NCI-H727 | 0.746 | 0.938 | 0.955 | 0.913
NCI-H838 | 1.03 | 0.943 | 1.05 | 0.757
NCI-H1355 | 1.09 | 0.987 | 1.13 | 0.95
NCI-H1395 | 1.05 | 0.846 | 0.995 | 0.925
NCI-H1437 | 0.996 | 1.01 | 1.03 | 0.895
NCI-H1563 | 0.987 | 0.927 | 0.95 | 0.657
NCI-H1650 | 0.986 | 0.849 | 0.932 | 0.27
NCI-H1651 | 1.04 | 0.954 | 1.01 | 0.773
NCI-H1666 | 0.927 | 0.913 | 1.02 | 0.871
NCI-H1703 | 0.854 | 0.917 | 0.961 | 0.764
NCI-H1734 | 0.97 | 0.981 | 1.05 | 0.936
NCI-H1755 | 1.04 | 0.964 | 1.1 | 0.918
NCI-H1792 | 1.44 | 0.775 | 0.878 | 0.777

Cell Line | relative viability (0.4 µM) | relative viability (1.265 µM) | relative viability (4 µM) | relative viability (12.65 µM)
NCI-H1793 | 1.01 | 0.911 | 0.869 | 0.917
NCI-H1915 | 1.09 | 0.948 | 1.08 | 1.07
NCI-H1944 | 0.921 | 0.972 | 1.03 | 0.969
NCI-H1975 | 1.11 | 0.86 | 1.02 | 0.72
NCI-H1993 | 0.954 | 0.934 | 1.09 | 0.945
NCI-H2009 | 1.06 | 0.998 | 1 | 0.932
NCI-H2023 | 0.998 | 0.883 | 1.07 | 0.329
NCI-H2085 | 1.03 | 1.03 | 0.997 | 0.945
NCI-H2087 | 1.02 | 0.936 | 1.08 | 0.788
NCI-H2126 | 1.05 | 0.985 | 1.1 | 0.991
NCI-H2170 | 0.986 | 0.971 | 1.16 | 1.02
NCI-H2228 | 1.23 | 0.976 | 1.05 | 0.829
NCI-H2342 | 0.952 | 0.997 | 1.08 | 0.977
NCI-H2347 | 1.08 | 1.04 | 1.04 | 0.948
NCI-H2405 | 1.01 | 0.972 | 1.05 | 0.786
NCI-H3122 | 1 | 1 | 0.984 | 0.957
PC-3 [JPC-3] | 1.09 | 1.05 | 1.07 | 0.955
PC-14 | 1.12 | 0.971 | 1.04 | 0.755
RERF-LC-KJ | 1.07 | 1 | 0.99 | 0.935
SK-LU-1 | 1.09 | 1.07 | 1.12 | 0.9
SK-MES-1 | 1.02 | 1.06 | 1.01 | 0.904
SW 900 | 0.962 | 0.881 | 0.953 | 0.845
SW 1573 | 0.909 | 0.928 | 1.06 | 0.495
UMC-11 | 0.917 | 0.914 | 1.08 | 0.95
